{"source": "paper PMC10508484", "about": "“Development and application of a PBPK modeling strategy to support antimalarial drug development” (CPT: Pharmacometrics & Systems Pharmacology, 2023)", "key": {"UGT1A1": {"target": "T1, UGT1A1 (Homo sapiens, UniProt P22309)", "T1 sequence (P22309 26-533)": "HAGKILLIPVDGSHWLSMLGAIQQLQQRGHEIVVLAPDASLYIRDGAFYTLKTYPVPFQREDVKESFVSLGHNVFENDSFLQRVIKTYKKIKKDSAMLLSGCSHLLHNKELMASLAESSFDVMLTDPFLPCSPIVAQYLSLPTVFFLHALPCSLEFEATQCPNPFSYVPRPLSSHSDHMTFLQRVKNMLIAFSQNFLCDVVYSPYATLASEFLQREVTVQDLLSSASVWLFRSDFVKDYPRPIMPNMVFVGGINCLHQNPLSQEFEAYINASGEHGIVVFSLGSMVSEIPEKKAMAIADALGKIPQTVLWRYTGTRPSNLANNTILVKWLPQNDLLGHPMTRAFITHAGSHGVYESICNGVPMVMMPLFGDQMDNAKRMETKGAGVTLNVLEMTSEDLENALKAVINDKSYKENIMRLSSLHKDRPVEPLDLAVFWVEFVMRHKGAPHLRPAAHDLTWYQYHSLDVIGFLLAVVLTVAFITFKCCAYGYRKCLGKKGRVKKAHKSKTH", "experiment": "Metabolism by UGT1A1", "assay_type": "in vitro ADME", "from_the_text": "(§1) In nearly all cases the fraction of systemic elimination metabolised by a given enzyme (fm) determined in vitro was unavailable in the literature."}, "[1]": {"conditions": "cited from earlier work"}, "[2]": {"experiment": "Blood to plasma ratio (B:P)", "conditions": "PBPK input; unpublished (in-house) data"}, "[3]": {"experiment": "Fraction unbound in plasma (fu), main binding protein", "conditions": "PBPK input; unpublished (in-house) data"}, "[4]": {"experiment": "In vivo clearance (CL IV, CL PO, CL renal, fe)", "conditions": "rat, after IV dose"}, "in vitro": {"experiment": "in vitro", "conditions": "human, Caco-2"}, "[5]": {"conditions": "clinically observed oral (in vivo) clearance; pyronaridine: blood; ref amodiaquine Winstanley et al., 1987 9; DEAQ Akande et al., 2015 8, Scarsi et al., 2014 35, Tarning et al., 2012 36, Orrell et al., 2008 37; DHA Na-Bangchang et al., 2004 42; lumefantrine Lefevre et al., 2002 52, Hoglund et al., 2015 53; mefloquine Charles et al., 2007 56; proguanil Jeppesen et al., 1997 34; pyronaridine Jittama; cited from earlier work"}, "[6]": {"experiment": "In vitro flags for victim and perpetrator properties conferring DDI liability", "assay_type": "in vitro ADME, human", "conditions": "in vitro flag, mainly based on in vitro determinations"}, "CYP3A4": {"target": "CYP3A4 (Homo sapiens, UniProt P08684)", "sequence (P08684 whole entry)": "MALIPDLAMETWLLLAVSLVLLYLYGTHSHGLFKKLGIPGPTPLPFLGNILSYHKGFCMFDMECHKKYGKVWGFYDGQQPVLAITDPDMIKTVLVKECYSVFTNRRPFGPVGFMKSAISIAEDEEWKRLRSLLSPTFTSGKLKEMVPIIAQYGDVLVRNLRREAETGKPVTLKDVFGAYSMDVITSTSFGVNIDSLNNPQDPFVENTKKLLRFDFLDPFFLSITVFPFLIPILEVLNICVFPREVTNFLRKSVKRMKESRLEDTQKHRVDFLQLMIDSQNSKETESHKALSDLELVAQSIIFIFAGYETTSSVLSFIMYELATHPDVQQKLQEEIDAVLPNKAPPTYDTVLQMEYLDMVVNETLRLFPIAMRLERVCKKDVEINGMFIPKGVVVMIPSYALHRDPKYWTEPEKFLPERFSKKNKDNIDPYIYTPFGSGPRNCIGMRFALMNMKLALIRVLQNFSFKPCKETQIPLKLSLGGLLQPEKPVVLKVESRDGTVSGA", "from_the_text": "as §1"}, "CYP2C8 [7]": {"target": "T2, CYP2C8 (Homo sapiens, UniProt P10632)", "T2 sequence (P10632 1-490)": "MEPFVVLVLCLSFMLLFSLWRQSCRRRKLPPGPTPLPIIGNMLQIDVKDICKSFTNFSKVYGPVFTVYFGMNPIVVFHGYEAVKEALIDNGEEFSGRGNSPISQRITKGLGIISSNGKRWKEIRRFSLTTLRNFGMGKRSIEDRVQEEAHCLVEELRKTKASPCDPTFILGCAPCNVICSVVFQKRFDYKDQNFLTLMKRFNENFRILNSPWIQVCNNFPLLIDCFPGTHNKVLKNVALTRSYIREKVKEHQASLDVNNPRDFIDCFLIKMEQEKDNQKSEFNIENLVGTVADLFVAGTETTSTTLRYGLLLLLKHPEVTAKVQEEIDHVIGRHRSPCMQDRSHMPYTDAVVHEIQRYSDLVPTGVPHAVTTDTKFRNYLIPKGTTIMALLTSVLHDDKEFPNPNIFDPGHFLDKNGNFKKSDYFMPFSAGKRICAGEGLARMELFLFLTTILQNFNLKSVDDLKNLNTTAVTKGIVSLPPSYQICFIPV", "experiment": "Metabolism by CYP2C8 (CLint, fm)", "from_the_text": "as §1"}, "CYP2C8 [8]": {"target": "T2, CYP2C8", "experiment": "biochemical"}, "[9]": {"experiment": "Fraction unbound in human liver microsomes (fumic)", "conditions": "method of Austin et al., 2002"}, "[10]": {"conditions": "PBPK input; ref Charman et al., 2020 1; cited from earlier work"}, "[11]": {"experiment": "PBPK absorption inputs (fa, ka, tlag, Qgut, Fg)", "set-up": "species or system human", "conditions": "derived from ascending dose studies, McCarthy et al., 2017", "from_the_text": "Initial models were built based on available physicochemical and in vitro data to give a ‘bottom-up’ prediction. Areas of uncertainty were highlighted, and the potential impact of uncertainty associated with such parameters was investigated using sensitivity analysis. Available clinical PK data were then used to evaluate and, if required, refine the initial ‘bottom-up’ model. Care was taken to split data into training and test sets wherever possible. The model verification strategy differed across compounds based on availability of different types of clinical data. […] Clinical studies used for drug model development and verification are reported in Table S2 (PK) and Table S3 (DDIs)."}, "CYP2C19": {"target": "CYP2C19 (Homo sapiens, UniProt P33261)", "sequence (P33261 whole entry)": "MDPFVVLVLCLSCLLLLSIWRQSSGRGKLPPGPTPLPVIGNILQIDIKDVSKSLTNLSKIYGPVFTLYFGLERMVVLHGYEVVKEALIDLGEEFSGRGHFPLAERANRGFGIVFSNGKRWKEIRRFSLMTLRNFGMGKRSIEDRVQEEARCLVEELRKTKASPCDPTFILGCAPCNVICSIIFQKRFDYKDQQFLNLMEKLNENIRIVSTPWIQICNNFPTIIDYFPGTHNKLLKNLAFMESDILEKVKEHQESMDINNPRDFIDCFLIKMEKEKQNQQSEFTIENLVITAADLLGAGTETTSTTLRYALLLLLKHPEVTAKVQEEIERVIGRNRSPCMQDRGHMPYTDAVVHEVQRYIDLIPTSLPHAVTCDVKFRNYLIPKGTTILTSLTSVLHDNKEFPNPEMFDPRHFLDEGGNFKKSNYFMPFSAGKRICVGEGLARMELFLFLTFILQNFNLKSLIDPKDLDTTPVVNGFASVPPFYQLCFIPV", "experiment": "Metabolism by CYP2C19 (CLint, fm)", "assay_type": "in vitro ADME", "from_the_text": "as §1"}, "Caco-2 cells": {"test_system": "Caco-2 cells", "conditions": "calibrated against propranolol; plasma as medium for atovaquone and piperaquine; ref Charman et al., 2020 1; cited from earlier work"}, "CYP2C8 [12]": {"target": "T2, CYP2C8"}}, "note": "Values joined by “and” are separate entries in the source; they are usually repeats but may differ in a detail not shown here. Equal values may be shown once. Read-outs that look alike come from different tables or passages of the source.", "data": [{"compound": "CS(=O)(=O)c1ccc(-c2cnc(N)c(-c3ccc(C(F)(F)F)nc3)c2)cc1", "note": "[MMV048]", "values": [{"measurement": "CLint UGT1A1", "setting": "UGT1A1; Derived from CL PO using retrograde calculations", "value": 1.13, "unit": "µL/min/pmol"}, {"measurement": "fm UGT1A1", "setting": "UGT1A1; allocation of clearance, based on in vitro data", "value": 90, "unit": "%"}, {"measurement": "fm by UGT1A1", "setting": "UGT1A1; fraction metabolized", "value": 0.9}, {"measurement": "AUC Obs", "setting": "[1]; 40 mg SD, 0-inf, ref McCarthy et al., 2020 47", "value": 30.32, "unit": "µg·h/mL"}, {"measurement": "Cmax Obs", "setting": "[1]; 40 mg SD, ref McCarthy et al., 2020 47", "value": 272.7, "unit": "ng/mL"}, {"measurement": "AUC Obs", "setting": "[1]; 80 mg SD, 0-inf, ref McCarthy et al., 2020 47", "value": 82.68, "unit": "µg·h/mL"}, {"measurement": "Cmax Obs", "setting": "[1]; 80 mg SD, ref McCarthy et al., 2020 47", "value": 561.0, "unit": "ng/mL"}, {"measurement": "AUC Obs", "setting": "[1]; 120 mg SD, 0-inf, ref McCarthy et al., 2020 47", "value": 137.8, "unit": "µg·h/mL"}, {"measurement": "Cmax Obs", "setting": "[1]; 120 mg SD, ref McCarthy et al., 2020 47", "value": 1094.0, "unit": "ng/mL"}, {"measurement": "B:P", "setting": "[2]", "value": 0.9}, {"measurement": "fu", "setting": "[3]", "value": 0.145}, {"measurement": "dose recovered in urine", "setting": "[4]", "value": "0.2 % of dose"}, {"measurement": "Papp A→B", "setting": "in vitro", "value": 44, "unit": "×10⁻⁶ cm/s"}, {"measurement": "CL PO", "setting": "[5]", "value": 0.82, "unit": "L/h"}, {"measurement": "Risk as a perpetrator", "setting": "[6]", "value": "No risk has been identified as a perpetrator"}, {"measurement": "fmCYP3A4", "setting": "CYP3A4", "value": 10, "unit": "%"}, {"measurement": "CLint CYP3A4", "setting": "CYP3A4; microsomes", "value": 0.13, "unit": "µL/min/pmol"}]}, {"compound": "Cc1cc(Nc2ccc(S(F)(F)(F)(F)F)cc2)n2nc(C(C)(F)F)nc2n1", "note": "[DSM265]", "values": [{"measurement": "CLint CYP2C8", "setting": "CYP2C8 [7]; Unpublished MMV in house data", "value": 2.384, "unit": "µL/min/pmol"}, {"measurement": "fmCYP2C8", "setting": "CYP2C8 [7]; fraction metabolised used in the PBPK model", "value": "70% and ~ 70%"}, {"measurement": "Ki", "setting": "CYP2C8 [8]", "value": "3.1 µM and 1.18 µM"}, {"measurement": "AUC Obs", "setting": "[1]; DSM265 400 mg SD, 0-inf, ref McCarthy et al., 2017 46", "value": 1210, "unit": "µg·h/mL"}, {"measurement": "Cmax Obs", "setting": "[1]; DSM265 400 mg SD, ref McCarthy et al., 2017 46", "value": 11500, "unit": "ng/mL"}, {"measurement": "AUC Obs", "setting": "[1]; DSM265 600 mg SD, 0-inf, ref McCarthy et al., 2017 46", "value": 2140, "unit": "µg·h/mL"}, {"measurement": "Cmax Obs", "setting": "[1]; DSM265 600 mg SD, ref McCarthy et al., 2017 46", "value": 15500, "unit": "ng/mL"}, {"measurement": "AUC Obs", "setting": "[1]; DSM265 800 mg SD, 0-inf, ref McCarthy et al., 2017 46", "value": 2220, "unit": "µg·h/mL"}, {"measurement": "Cmax Obs", "setting": "[1]; DSM265 800 mg SD, ref McCarthy et al., 2017 46", "value": 19100, "unit": "ng/mL"}, {"measurement": "AUC Obs", "setting": "[1]; DSM265 1200 mg SD, 0-inf, ref McCarthy et al., 2017 46", "value": 4720, "unit": "µg·h/mL"}, {"measurement": "Cmax Obs", "setting": "[1]; DSM265 1200 mg SD, ref McCarthy et al., 2017 46", "value": 34800, "unit": "ng/mL"}, {"measurement": "fumic", "setting": "[9]; extrapolated from value measured at 0.4 mg/mL to 0.1 mg/mL", "value": 0.61}, {"measurement": "fumic", "setting": "[9]; for CYP2C8 Ki, extrapolated from 0.4mg/mL to 0.2 mg/mL", "value": 0.44}, {"measurement": "Log P", "setting": "[10]", "value": 4.03}, {"measurement": "fa", "setting": "[11]; doses 400 mg and above", "value": 0.7}, {"measurement": "fa", "setting": "[11]; doses 25 - 250 mg", "value": 1}, {"measurement": "B:P", "setting": "[2]", "value": 0.70}, {"measurement": "CLint CYP2C19", "setting": "CYP2C19; Unpublished MMV in house data", "value": 1.751, "unit": "µL/min/pmol"}, {"measurement": "fmCYP2C19", "setting": "CYP2C19; fraction metabolised used in the PBPK model (proguanil: total, all routes)", "value": "30% and ~ 30%"}, {"measurement": "Caco-2 (Papp A-B)", "setting": "Caco-2 cells", "value": "61 10-6 cm/s"}, {"measurement": "fu", "setting": "[3]", "value": 0.001}]}, {"compound": "CC(F)(F)c1nc2nc(CO)cc(Nc3ccc(S(F)(F)(F)(F)F)cc3)n2n1", "note": "[DSM450]", "values": [{"measurement": "Ki", "setting": "CYP2C8 [12]", "value": 4.46, "unit": "µM"}, {"measurement": "AUC Obs", "setting": "[1]; in vivo, 400 mg", "value": 271, "unit": "µg·h/mL"}, {"measurement": "Cmax Obs", "setting": "[1]; in vivo, 400 mg", "value": 1070, "unit": "ng/mL"}, {"measurement": "AUC Obs", "setting": "[1]; in vivo, 600 mg", "value": 477, "unit": "µg·h/mL"}, {"measurement": "Cmax Obs", "setting": "[1]; in vivo, 600 mg", "value": 1380, "unit": "ng/mL"}, {"measurement": "AUC Obs", "setting": "[1]; in vivo, 800 mg", "value": 454, "unit": "µg·h/mL"}, {"measurement": "Cmax Obs", "setting": "[1]; in vivo, 800 mg", "value": 1920, "unit": "ng/mL"}, {"measurement": "AUC Obs", "setting": "[1]; in vivo, 1200 mg", "value": 1170, "unit": "µg·h/mL"}, {"measurement": "Cmax Obs", "setting": "[1]; in vivo, 1200 mg", "value": 3070, "unit": "ng/mL"}]}]}
